According to ChEMBL document CHEMBL1128638, “Probing the hydrophobic pocket of the active site of aromatase with 4-phenoxy-7 alpha-(phenylthio)-4-androstene-3,17-dione” (J Med Chem, 1995):

Molecular target: T1, Aromatase (Homo sapiens, UniProt P11511)
T1 sequence (P11511 whole entry): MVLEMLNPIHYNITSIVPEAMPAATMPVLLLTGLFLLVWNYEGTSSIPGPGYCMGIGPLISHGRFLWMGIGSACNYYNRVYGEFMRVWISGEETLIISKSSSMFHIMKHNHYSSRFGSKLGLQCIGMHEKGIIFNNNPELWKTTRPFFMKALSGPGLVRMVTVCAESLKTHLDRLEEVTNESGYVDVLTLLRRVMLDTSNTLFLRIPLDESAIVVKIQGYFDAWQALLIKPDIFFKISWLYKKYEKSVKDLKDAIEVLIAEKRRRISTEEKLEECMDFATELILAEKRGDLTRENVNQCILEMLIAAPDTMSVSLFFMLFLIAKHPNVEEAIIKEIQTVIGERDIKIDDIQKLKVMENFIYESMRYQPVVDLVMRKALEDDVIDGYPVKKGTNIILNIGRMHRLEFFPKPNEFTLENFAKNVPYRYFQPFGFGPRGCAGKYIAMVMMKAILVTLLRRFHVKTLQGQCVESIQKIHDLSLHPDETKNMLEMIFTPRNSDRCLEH
Test: Inhibition of Cytochrome P450 19A1

Structure (SMILES)	IC50 [nM]
C[C@]12CCC(=O)C=C1C[C@@H](Sc1ccccc1)[C@@H]1[C@@H]2CC[C@]2(C)C(=O)CC[C@@H]12	650
CC12CCC3C(CCC4=C(Oc5ccccc5)C(=O)CCC43C)C1CCC2=O (centres undefined)	530
CC12CCC3C(C1CCC2=O)[C@H](Sc1ccccc1)CC1=C(Oc2ccccc2)C(=O)CCC13C (some centres undefined)	1650
CC12CCC3C(CCC4=C(Sc5ccccc5)C(=O)CCC43C)C1CCC2=O (centres undefined)	190
